Results taken from publication PMC9688530, “Development of Ic-ELISA and Colloidal Gold Lateral Flow Immunoassay for the Determination of Cypermethrin in Agricultural Samples” (Biosensors, 2022).

System: anti-CYP mAb
Assay: colloidal gold LFIA strip
Assay type: binding, mouse
Set-up: key to T line color intensity: +++: More plus signs (+) mean darker red; ++-: More plus signs (+) mean darker red; +--: More plus signs (+) mean darker red; --- means no color band
Description: Colloidal gold particles were synthesized with trisodium citrate as a reducing agent according to our previous work. For the preparation of colloidal gold mAb, 6.65 μg/mL anti-CYP mAbs were added to the colloidal gold solution adjusted to pH 8.2 using 0.2 mol/L K2CO3 with shaking at room temperature for 1 h. BSA (1%) was used to block free colloidal gold particles. After 1 h, the mixture was centrifuged at 12,000 revolutions per minute (RPM) for 15 min to remove free anti-CYP mAbs. The centrifuged deposits were resuspended using one-tenth of the original volume of sodium borate solution (0.01 mol/L) containing 2% BSA and 3% sucrose and preserved at 4 °C.
As depicted in Figure 1A, the LFIA strip was assembled into four components. The center section of a PVC plate was affixed to an NC membrane. The sample pad and absorption pad were stuck on both ends of the PVC plate, and both overlapped with the NC membrane by 1 mm. A total of 2 mg/mL of hapten 5-BSA and 0.5 mg/mL of GAMA were sprayed onto the NC membrane as the test line and control line, respectively, with 5 mm intervals by an automatic dispenser. After drying at 37 °C for 12 h, the fabricated cards were cut into 4 mm wide LFIA strips.
One hundred microliters of the CYP standard solution and 4 μL of the colloidal gold mAb solution were added into a micropore and mixed. After 5 min, an LFIA strip was inserted into the mixture solution. During the mixed solution migration from the sample pad to the absorbent pad, colloidal gold mAb was captured by the T and C lines, resulting in the appearance of color bands within 10 min. When the T line disappeared or the color intensity of the T line was lower than that of the C line, the result was positive (Figure 1B,C). When the color intensity of the T line was not less than that of the C line, the result was negative (Figure 1D).
The sensitivity of the LFIA strip was evaluated by a series of CYP standard solutions (0.7, 0.6, 0.5, 0.4, 0.3, 0.2, 0.1, 0 μg/mL). For qualitative analysis, the sensitivity of the LFIA strip was appraised by the visual LOD (vLOD) and the cut-off value. The vLOD is the lowest concentration of CYP at which the lighter color of the T line is observed compared to the C line. The cut-off value is the minimum CYP concentration at which no color band appears on the T line.
The CRs of the LFIA were calculated with the following equation:CR (%) = (vLOD of CYP/vLOD of analogues) × 100%.

SMILES: CC1(C)C(C=C(Cl)Cl)C1C(=O)OC(C#N)c1cccc(Oc2ccccc2)c1 (centres unmarked) [CYP, Cypermethrin]
- T line color intensity (0.3 µg/mL, Acetone 10 v%): +++
- T line color intensity (0.3 µg/mL, Acetone 20 v%): +++
- T line color intensity (0.3 µg/mL, Acetone 30 v%): ++-
- T line color intensity (0.3 µg/mL, Acetone 40 v%): +--
- T line color intensity (0.3 µg/mL, Acetonitrile 10 v%): +++
- T line color intensity (0.3 µg/mL, Acetonitrile 20 v%): ++-
- T line color intensity (0.3 µg/mL, Acetonitrile 30 v%): +--
- T line color intensity (0.3 µg/mL, Acetonitrile 40 v%): ---
- T line color intensity (0.3 µg/mL, Dimethyl sulfoxide 10 v%): ++-
- T line color intensity (0.3 µg/mL, Dimethyl sulfoxide 20 v%): +++
- T line color intensity (0.3 µg/mL, Dimethyl sulfoxide 30 v%): ++-
- T line color intensity (0.3 µg/mL, Dimethyl sulfoxide 40 v%): ++-
- T line color intensity (0.3 µg/mL, Methanol 10 v%): +++
- T line color intensity (0.3 µg/mL, Methanol 20 v%): +++
- T line color intensity (0.3 µg/mL, Methanol 30 v%): ++-
- T line color intensity (0.3 µg/mL, Methanol 40 v%): +--
- T line color intensity (0.3 µg/mL, Na+ 0.07 mol/L): +++
- T line color intensity (0.3 µg/mL, Na+ 0.14 mol/L): +++
- T line color intensity (0.3 µg/mL, Na+ 0.25 mol/L): +++
- T line color intensity (0.3 µg/mL, Na+ 0.5 mol/L): ++-
- T line color intensity (0.3 µg/mL, Na+ 1 mol/L): ++-
- T line color intensity (0.3 µg/mL, Na+ 2 mol/L): +--
- T line color intensity (0.3 µg/mL, pH 6): +++
- T line color intensity (0.3 µg/mL, pH 7): +++
- T line color intensity (0.3 µg/mL, pH 7.4): +++
- T line color intensity (0.3 µg/mL, pH 8): ++-
- T line color intensity (0.3 µg/mL, pH 9): +--
- T line color intensity (0.4 µg/mL, Acetone 10 v%): ++-
- T line color intensity (0.4 µg/mL, Acetone 20 v%): +--
- T line color intensity (0.4 µg/mL, Acetone 30 v%): +--
- T line color intensity (0.4 µg/mL, Acetone 40 v%): ---
- T line color intensity (0.4 µg/mL, Acetonitrile 10 v%): ++-
- T line color intensity (0.4 µg/mL, Acetonitrile 20 v%): +--
- T line color intensity (0.4 µg/mL, Acetonitrile 30 v%): +--
- T line color intensity (0.4 µg/mL, Acetonitrile 40 v%): ---
- T line color intensity (0.4 µg/mL, Dimethyl sulfoxide 10 v%): +--
- T line color intensity (0.4 µg/mL, Dimethyl sulfoxide 20 v%): +--
- T line color intensity (0.4 µg/mL, Dimethyl sulfoxide 30 v%): +--
- T line color intensity (0.4 µg/mL, Dimethyl sulfoxide 40 v%): +--
- T line color intensity (0.4 µg/mL, Methanol 10 v%): +--
- T line color intensity (0.4 µg/mL, Methanol 20 v%): +--
- T line color intensity (0.4 µg/mL, Methanol 30 v%): +--
- T line color intensity (0.4 µg/mL, Methanol 40 v%): +--
- T line color intensity (0.4 µg/mL, Na+ 0.07 mol/L): ++-
- T line color intensity (0.4 µg/mL, Na+ 0.14 mol/L): ++-
- T line color intensity (0.4 µg/mL, Na+ 0.25 mol/L): ++-
- T line color intensity (0.4 µg/mL, Na+ 0.5 mol/L): ++-
- T line color intensity (0.4 µg/mL, Na+ 1 mol/L): ++-
- T line color intensity (0.4 µg/mL, Na+ 2 mol/L): +--
- T line color intensity (0.4 µg/mL, pH 6): ++-
- T line color intensity (0.4 µg/mL, pH 7): +--
- T line color intensity (0.4 µg/mL, pH 7.4): ++-
- T line color intensity (0.4 µg/mL, pH 8): +--
- T line color intensity (0.4 µg/mL, pH 9): ---
- T line color intensity (0.6 µg/mL, Acetone 10 v%): +--
- T line color intensity (0.6 µg/mL, Acetone 20 v%): +--
- T line color intensity (0.6 µg/mL, Acetone 30 v%): ---
- T line color intensity (0.6 µg/mL, Acetone 40 v%): ---
- T line color intensity (0.6 µg/mL, Acetonitrile 10 v%): +--
- T line color intensity (0.6 µg/mL, Acetonitrile 20 v%): ---
- T line color intensity (0.6 µg/mL, Acetonitrile 30 v%): ---
- T line color intensity (0.6 µg/mL, Acetonitrile 40 v%): ---
- T line color intensity (0.6 µg/mL, Dimethyl sulfoxide 10 v%): ---
- T line color intensity (0.6 µg/mL, Dimethyl sulfoxide 20 v%): ---
- T line color intensity (0.6 µg/mL, Dimethyl sulfoxide 30 v%): ---
- T line color intensity (0.6 µg/mL, Dimethyl sulfoxide 40 v%): ---
- T line color intensity (0.6 µg/mL, Methanol 10 v%): ---
- T line color intensity (0.6 µg/mL, Methanol 20 v%): +--
- T line color intensity (0.6 µg/mL, Methanol 30 v%): +--
- T line color intensity (0.6 µg/mL, Methanol 40 v%): ---
- T line color intensity (0.6 µg/mL, Na+ 0.07 mol/L): ---
- T line color intensity (0.6 µg/mL, Na+ 0.14 mol/L): +--
- T line color intensity (0.6 µg/mL, Na+ 0.25 mol/L): +--
- T line color intensity (0.6 µg/mL, Na+ 0.5 mol/L): +--
- T line color intensity (0.6 µg/mL, Na+ 1 mol/L): +--
- T line color intensity (0.6 µg/mL, Na+ 2 mol/L): ---
- T line color intensity (0.6 µg/mL, pH 6): ---
- T line color intensity (0.6 µg/mL, pH 7): ---
- T line color intensity (0.6 µg/mL, pH 7.4): ---
- T line color intensity (0.6 µg/mL, pH 8): ---
- T line color intensity (0.6 µg/mL, pH 9): ---
- cut-off value (optimal buffer): 0.6 µg/mL
- visual limit of detection (vLOD) (optimal buffer): 0.3 µg/mL
